pIC50, pKd: −log10 of the molar value. Where two headings read alike, the source gives them in different places. Where only a bound is given, the exact number is not on record here.

Drawing on patent US20250074891A1 (Anaxis Pharma Pty Ltd., priority 2021, published 2025), this text covers DC50, IC50 and Kd for nine compounds.

One assay deals with endogenous MLKL in U937 (Homo sapiens (Human), UniProt Q8NB16). The assay is described as follows: Degradation assay: degradation of endogenous MLKL in human cells (Western blot). Conditions: 24 h incubation, read-out: Degradation of endogenous MLKL in U937 (DC50 cell-based assay in μM). How it is done:
DEGRADATION ASSAY: Screening Compounds Procedure to Evaluate the Activity of Compounds in Degrading Endogenous MLKL in Human Cell
The human monocyte cell line (U937) was seeded on the day of the experiment in a 24-well plate at a cell density of 5*10^5 cells per well in a volume of 0.5 mL per well.
The compound was diluted in DMSO with a starting concentration of 10 mM and titrated stepwise with a dilution of 1:5. 0.5 μL of the compound dilution was added to the appropriate well to achieve a final concentration of 10; 2; 0.4; 0.08 and 0.016 μM. A DMSO only well was included as control.
The cells were incubated for 24 h in the presence of the compound at 37° C. and 10% CO2.
After the 24 h incubation period, the medium was removed and cells washed with 0.5 mL PBS. The cells were then lysed directly in 60 μL of 1×SDS gel loading buffer.
The cell lysate was heat-denatured at […] for 10 min. 10 μL of lysate per well were run on 18-well 4-15% Criterion TGX stain free gels (BIO-RAD). The proteins were then transferred onto nitrocellulose membrane with a wet transfer protocol in the Criterion Blotter (BIO-RAD).
Membranes were blocked with 5% skim milk in TBST. Primary antibody against MLKL (clone 3H1, MABC604 Merck) was used at 1:2000 dilution in TBST with 1% BSA and left shaking over night at 4° C. After washes with TBST, the membranes were incubated with goat anti-rat IgG HRP-conjugated antibody (Southern Biotech) in 1% skim milk TBST at 1:10000 dilution for 1 h at room temperature. After TBST washes the bands were imaged on the ChemiDoc MP Imaging Systm (BIO-RAD) with Immobilion Western Chemiluminescent HRP Substrate Forte (Millipore). The loading control GAPDH was probed for with rabbit anti-GAPDH (CST 14C10) at 1:2000 dilution in 1% BSA TBST over night at 4° C. TBST washes were followed by incubation with goat anti-rabbit IgG HRP-conjugated antibody (Southern Biotech) in 1% skim milk TBST at 1:10000 dilution for 1 h at room temperature followed by TBST washes. The signal was detected as described above.
The band intensity was measured in the ImageLab Software (BIO-RAD) and the MLKL values adjusted for loading with GAPDH. The percentage of degradation was calculated by normalizing the compound treated values to the DMSO only control.

Assay [1] has as its system U937 human histiocytic leukemia cell line. The assay is described as follows: Cellular assay: inhibition of TSQ induced necroptosis (CellTitre-Glo). To be noted: U937 cells, TSQ cocktail, 48 hours, Table 38, read-out: Inhibition of TSQ-induced necroptosis (IC50 cell-based assay). Summed up: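 U937 cells (20,000/well) pre-dosed with compound (10-point, 1:3 from 36 μM, 0.3% DMSO), then TSQ (hTNF-Fc 100 ng/ml, Smac mimetic 500 nM, Q-VD-OPh 10 μM) for 48 h at 37 °C. Viability by CellTiter-Glo luminescence, normalised to DMSO (100%) and DMSO+TSQ (0%); IC50 from 4-parameter fit.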

In the next assay the test system is U937 cells. The assay can be described thus: Counter screen: cell viability without TSQ cocktail (off-target effect). Details: species or system human. On the procedure:
Counter screen: In parallel, all compounds were tested for their ability to affect cell viability. The same U937 cells were treated with compound in DMSO without the TSQ cocktail. This counter screen enabled evaluation of off-target effects. In this case, cell viability was measured by CelltiterGlo.
(In general: Counterscreens check selectivity or assay interference.)

The next assay addresses MLKL (full length) (Homo sapiens (Human), UniProt Q8NB16). The assay can be described thus: KINOMEscan binding assay, MLKL (full length). To be noted: Table 36. On the procedure: Kinase assays. For most assays, kinase-tagged T7 phage strains were grown in parallel in 24-well blocks in an E. coli host derived from the BL21 strain. E. coli were grown to log-phase and infected with T7 phage from a frozen stock (multiplicity of infection=0.4) and incubated with shaking at 32° C. until lysis (90-150 minutes).
The Hill Slope was set to −1.

Setting [2] is: Homo sapiens, U-937, Table 38, read-out: Off-target effect (IC50 cell-based assay).

Sequence of MLKL (full length) (Q8NB16 whole entry): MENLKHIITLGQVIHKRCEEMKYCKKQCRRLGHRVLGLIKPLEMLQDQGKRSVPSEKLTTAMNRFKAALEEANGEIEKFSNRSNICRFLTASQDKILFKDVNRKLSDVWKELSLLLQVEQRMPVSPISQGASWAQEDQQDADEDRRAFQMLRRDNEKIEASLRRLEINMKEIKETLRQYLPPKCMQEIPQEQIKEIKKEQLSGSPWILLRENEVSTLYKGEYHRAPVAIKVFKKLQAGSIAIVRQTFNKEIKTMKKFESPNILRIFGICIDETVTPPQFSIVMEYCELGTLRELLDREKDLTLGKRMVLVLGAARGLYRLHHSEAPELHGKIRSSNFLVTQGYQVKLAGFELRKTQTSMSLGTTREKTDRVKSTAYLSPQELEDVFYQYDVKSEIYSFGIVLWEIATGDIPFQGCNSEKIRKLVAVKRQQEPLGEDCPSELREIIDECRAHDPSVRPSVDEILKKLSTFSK
Sequence of endogenous MLKL in U937 (Q8NB16 whole entry): as above

In the case of `CCS(=O)(=O)Nc1ccc(-c2n[nH]c(Nc3ccc(C(=O)OCCCCC(=O)N[C@H](C(=O)N4CC(O)C[C@H]4C(=O)NCc4ccc(-c5scnc5C)cc4)C(C)(C)C)cn3)c2C(N)=O)cc1O[C@@H](C)c1ccc(F)cc1` (stereo in doubt) [Compound 1056, 4-{[(2S)-1-[(2S,4S)-4-hydroxy-2-({[4-(4-methyl-1,3-thiazol-5-yl)phenyl]methyl}carbamoyl)pyrrolidin-1-yl]-3,3-dimethyl-1-oxobutan-2-yl]carbamoyl}butyl 6-[(4-carbamoyl-3-{4-ethanesulfonamido-3-[(1S)-1-(4-fluorophenyl)ethoxy]phenyl}-1H-pyrazol-5-yl)amino]pyridine-3-carboxylate], on endogenous MLKL in U937, the DC50 (commonly the concentration giving 50% degradation) is under 1 µM. Further, the pIC50 (as a rule, the negative decadic logarithm of the IC50, by convention in mol/L) was over 6.00 in assay [1] and under 5.00 with U937 cells (Table 38, read-out: Off-target effect (IC50 cell-based assay)). The pKd (commonly the negative decadic logarithm of the Kd, by convention in mol/L) at MLKL (full length) was 6.00 to 8.00.

`CCS(=O)(=O)Nc1ccc(-c2n[nH]c(Nc3ccnc(OCCOCCOCCOCCOCCNC(=O)COc4cccc5c4C(=O)N(C4CCC(=O)NC4=O)C5=O)c3)c2C(N)=O)cc1` (stereo not drawn) [Compound 1001, 5-[(2-{[14-(2-{[2-(2,6-dioxopiperidin-3-yl)-1,3-dioxo-2,3-dihydro-1H-isoindol-4-yl]oxy}acetamido)-3,6,9,12-tetraoxatetradecan-1-yl]oxy}pyridin-4-yl)amino]-3-(4-ethanesulfonamidophenyl)-1H-pyrazole-4-carboxamide]: the 50% degradation concentration (DC50) at endogenous MLKL in U937 lay in the range of 1 to 10 µM. Further, the pIC50 is under 5.00 in assay [1] (Homo sapiens, U-937) and under 5.00 with U937 cells (setting [2]). Moreover, the pKd at MLKL (full length) is over 8.00.

For `CCS(=O)(=O)Nc1ccc(-c2n[nH]c(Nc3ccnc(OCCOCCOCCOCCOCCOCCNC(=O)COc4cccc5c4C(=O)N(C4CCC(=O)NC4=O)C5=O)c3)c2C(N)=O)cc1` (stereo not drawn) [Compound 1005, 5-[(2-{[17-(2-{[2-(2,6-dioxopiperidin-3-yl)-1,3-dioxo-2,3-dihydro-1H-isoindol-4-yl]oxy}acetamido)-3,6,9,12,15-pentaoxaheptadecan-1-yl]oxy}pyridin-4-yl)amino]-3-(4-ethanes-ulfonamidophenyl)-1H-pyrazole-4-carboxamide], the 50% degradation concentration (DC50) on endogenous MLKL in U937 fell in the range of 1 to 10 µM. Besides, the pIC50 in assay [1] (Homo sapiens, U-937) is under 5.00; with U937 cells (setting [2]) it was under 5.00. For the same compound, the pKd at MLKL (full length) is over 8.00.

With `CCS(=O)(=O)Nc1ccc(-c2n[nH]c(Nc3ccnc(OCCCCC(=O)N[C@H](C(=O)N4C[C@H](O)C[C@H]4C(=O)NCc4ccc(-c5scnc5C)cc4)C(C)(C)C)c3)c2C(N)=O)cc1` [Compound 1013, 3-(4-ethanesulfonamidophenyl)-5-{[2-(4-{[(2S)-1-[(2S,4R)-4-hydroxy-2-({[4-(4-methyl-1,3-thiazol-5-yl)phenyl]methyl}carbamoyl)pyrrolidin-1-yl]-3,3-dimethyl-1-oxobutan-2-yl]carbamoyl}butoxy)pyridin-4-yl]amino}-1H-pyrazole-4-carboxamide], at endogenous MLKL in U937, the DC50 lay within 1 to 10 µM. The pIC50 in assay [1] (Homo sapiens, U-937) is 5.00 to 6.00; in the assay with U937 cells (setting [2]), under 5.00. On MLKL (full length), this compound gave a pKd of over 8.00.

On to `Cc1ncsc1-c1ccc(CNC(=O)[C@@H]2C[C@@H](O)CN2C(=O)[C@@H](NC(=O)CCCCOc2cc(Nc3[nH]nc(-c4ccc(NS(=O)(=O)CC(F)(F)F)cc4)c3C(N)=O)ccn2)C(C)(C)C)cc1` [Compound 1016, 5-{[2-(4-{[(2S)-1-[(2S,4R)-4-hydroxy-2-({[4-(4-methyl-1,3-thiazol-5-yl)phenyl]methyl}carbamoyl)pyrrolidin-1-yl]-3,3-dimethyl-1-oxobutan-2-yl]carbamoyl}butoxy)pyridin-4-yl]amino}-3-[4-(2,2,2-trifluoroethanesulfonamido)phenyl]-1H-pyrazole-4-carboxamide], for which the DC50 at endogenous MLKL in U937 lay in the range of 1 to 10 µM. The pIC50 was 5.00 to 6.00 in assay [1] (Homo sapiens, U-937) and under 5.00 with U937 cells (setting [2]). The compound also showed a pKd on MLKL (full length) of over 8.00.

For `CCS(=O)(=O)Nc1ccc(-c2n[nH]c(Nc3ccc(OCCCCC(=O)N[C@H](C(=O)N4C[C@H](O)C[C@H]4C(=O)NCc4ccc(-c5scnc5C)cc4)C(C)(C)C)cn3)c2C(N)=O)cc1` [Compound 1019, 3-(4-ethanesulfonamidophenyl)-5-{[5-(4-{[(2S)-1-[(2S,4R)-4-hydroxy-2-({[4-(4-methyl-1,3-thiazol-5-yl)phenyl]methyl}carbamoyl)pyrrolidin-1-yl]-3,3-dimethyl-1-oxobutan-2-yl]carbamoyl}butoxy)pyridin-2-yl]amino}-1H-pyrazole-4-carboxamide], the half-maximal degradation concentration (DC50) on endogenous MLKL in U937 is under 1 µM. Further, the pIC50 in assay [1] (Homo sapiens, U-937) was over 6.00; in the assay on U937 cells (setting [2]), under 5.00. At MLKL (full length), this compound gave a pKd of over 8.00.

In the case of `Cc1ncsc1-c1ccc(CNC(=O)[C@@H]2C[C@@H](O)CN2C(=O)[C@@H](NC(=O)CCCCOc2ccc(Nc3[nH]nc(-c4ccc(NS(=O)(=O)CC(F)(F)F)cc4)c3C(N)=O)nc2)C(C)(C)C)cc1` [Compound 1020, 5-{[5-(4-{[(2S)-1-[(2S,4R)-4-hydroxy-2-({[4-(4-methyl-1,3-thiazol-5-yl)phenyl]methyl}carbamoyl)pyrrolidin-1-yl]-3,3-dimethyl-1-oxobutan-2-yl]carbamoyl}butoxy)pyridin-2-yl]amino}-3-[4-(2,2,2-trifluoroethanesulfonamido)phenyl]-1H-pyrazole-4-carboxamide], at endogenous MLKL in U937, the DC50 is under 1 µM. The pIC50 is over 6.00 in assay [1] (Homo sapiens, U-937) and under 5.00 with U937 cells (setting [2]). At MLKL (full length), the pKd was over 8.00.

Take `Cc1ncsc1-c1ccc(CNC(=O)[C@@H]2C[C@@H](O)CN2C(=O)[C@@H](NC(=O)CCCCOc2ccc(Nc3[nH]nc(-c4ccc(NS(=O)(=O)C(F)F)cc4)c3C(N)=O)nc2)C(C)(C)C)cc1` [Compound 1021, 3-[4-(difluoromethanesulfonamido)phenyl]-5-{[5-(4-{[(2S)-1-[(2S,4R)-4-hydroxy-2-({[4-(4-methyl-1,3-thiazol-5-yl)phenyl]methyl}carbamoyl)pyrrolidin-1-yl]-3,3-dimethyl-1-oxobutan-2-yl]carbamoyl}butoxy)pyridin-2-yl]amino}-1H-pyrazole-4-carboxamide]: the 50% degradation concentration (DC50) on endogenous MLKL in U937 was 1 to 10 µM. Further, the negative-log IC50 (pIC50) is over 6.00 in assay [1] (Homo sapiens, U-937) and under 5.00 in the assay on U937 cells (setting [2]). At MLKL (full length), the pKd is over 8.00.

`CCS(=O)(=O)Nc1ccc(-c2n[nH]c(Nc3cnc(OCCCCC(=O)N[C@H](C(=O)N4C[C@H](O)C[C@H]4C(=O)NCc4ccc(-c5scnc5C)cc4)C(C)(C)C)cn3)c2C(N)=O)cc1OCc1ccc(F)cc1` [Compound 1023, 3-{4-ethanesulfonamido-3-[(4-fluorophenyl)methoxy]phenyl}-5-{[5-(4-{[(2S)-1-[(2S,4R)-4-hydroxy-2-({[4-(4-methyl-1,3-thiazol-5-yl)phenyl]methyl}carbamoyl)pyrrolidin-1-yl]-3,3-dimethyl-1-oxobutan-2-yl]carbamoyl}butoxy)pyrazin-2-yl]amino}-1H-pyrazole-4-carboxamide]: the DC50 on endogenous MLKL in U937 is under 1 µM. The pIC50 is over 6.00 in assay [1] (Homo sapiens, U-937) and under 5.00 in the assay with U937 cells (setting [2]). Further, the pKd on MLKL (full length) was over 8.00.
